assay: Human HepG2 cell viability assay in 384 well format; assay type: toxicity, cell-based; design: dose 125 nL, time 70.5 hour; cytotoxicity at 70.5 h: concentration not given beside the values; details: HepG2 cells, read-out: Inhibition

| Structure (SMILES) | cytotoxicity at 70.5 h |
| --- | --- |
| c1cnc(-c2nn3c(CN4CCCCC4)nnc3s2)cn1 | -6.5% |
| O=C(c1ccccn1)N1CCCC(c2nccn2Cc2ccncc2)C1 (centres undefined) | -4.69% |
| N#CCCN(Cc1ccccn1)Cn1cc(Cl)cn1 | 29.9% |
| COc1ccc(CN(C)CC(=O)c2ccc3[nH]c(=O)[nH]c3c2)cc1F | -6.51% |
| Cc1ccc(C)c(NC(=O)N(C)Cc2cnn(C)c2)c1 | -3.32% |
| Cc1cccc(-c2ccc(C(=O)NCC(C)(C)C(N)=O)c(=O)[nH]2)c1 | -18.8% |
| CCC1CN(CC(=O)NCC(C)C)CCO1 (centres undefined) | -10.6% |
| COCC(NC(=O)c1cnc(-c2ccncc2)nc1)c1ccnn1C (centres undefined) | -5.01% |
| CCn1ccnc1CN1CCCN(C(=O)Cc2csc(C)n2)CC1 | -5.98% |
| CCCc1ccc(CN2CCN(C(=O)NCC)[C@H]3CS(=O)(=O)C[C@H]32)o1 | -15.3% |
| O=C(N1CCCC1)N1CCCC(c2nccn2Cc2ccncc2)C1 (centres undefined) | -8.72% |
| CCN1CCOC(CNCc2ccccc2OCc2cccnc2)C1 (centres undefined) | 0.0939% |
| Cc1ccc(CN2CC[C@H]3C(=O)N(Cc4cccnc4)CCO[C@H]3C2)o1 | -8.65% |
| CCC(=O)N1CCC(c2ncc(C(=O)Nc3ccccc3)c(C)n2)C1 (centres undefined) | -3.38% |
| Cc1ccc2nc(C)cc(C(=O)NCc3csc(N(C)C)n3)c2c1 | -2.75% |
| Cc1cc(CC(=O)NCc2ccnc(OCC(F)(F)F)c2)no1 | 34% |
| O=C1CCCN1CCCN1CCCC(Cn2cncn2)C1 (centres undefined) | 3.37% |
| O=C(CN1CCCC1Cn1cncn1)NCC1(c2ccccc2)CC1 (centres undefined) | -5.75% |
| CCC(=O)NCC(Cc1cccc(F)c1)n1cccc1 (centres undefined) | -7.66% |
| Cc1nc(C(=O)N2CCN(C(C)c3ccccc3F)CC2)cs1 (centres undefined) | -1.44% |
| O=C1CC2(CCN(CC3CC3)C2)CN1c1cccc(F)c1 (centres undefined) | 6.96% |
| O=C(NCc1nncn1C1CC1)c1cccnc1Oc1ccccc1 | -0.0708% |
| CC(C)CSCCN1CCCN(S(C)(=O)=O)CC1 | 9.07% |

| Structure (SMILES) | cytotoxicity at 70.5 h |
| --- | --- |
| c1ccc2c(Cc3nnc([C@H]4CCN(C5CCCCC5)C4)o3)c[nH]c2c1 | -0.596% |
| CCCNC(=O)CNC(=O)CCc1ccccc1Br | -7.6% |
| CSC(C)CCN1CCC(n2cc(C3CCCCC3)nn2)CC1 (centres undefined) | -1.37% |
| O=C(Cc1noc2ccccc12)N1CCC(Nc2cccnn2)CC1 | -5.81% |
| OC1(Cn2ccc3ncccc32)CCN(Cc2ccccn2)CC1 | 24.4% |
| Cc1ncc(CN(C)C(=O)c2ccc3c(c2O)OC(C)(C)C3)s1 | -1.48% |
| Cc1cc(C(=O)N[C@H]2CN(CCC(N)=O)C[C@@H]2C2CC2)sc1C | 9.55% |
| COc1ccccc1-c1nccnc1C1CCN(C(C)=O)CC1 | -6.14% |
| CC(C)NC(=O)NCc1cc(-c2ccco2)n(CC(F)(F)F)n1 | -5.8% |
| O=S(=O)(C1CC1)N1CCC2(COCc3cnc(N4CCOCC4)nc32)C1 (centres undefined) | 4.94% |
| COc1cccc2c1ccn2CCNC(=O)C(C)C | -6.5% |
| CCOCC1CCN(C(=O)c2sc(C)cc2OC(F)F)CC1 | -5.96% |
| CCCc1nnc2sc(C3CCN(CCOC)CC3)nn12 | -3.34% |
| COc1ccc(N(Cc2ccco2)C(=O)COC(C)C)cc1F | -7.47% |
| COCCC(Cc1cccc(Br)c1)C(N)=O (centres undefined) | -7.63% |
| Cc1ccc(C(=O)N2CCOC3(CCCC3)C2)c(=O)[nH]1 | -41.7% |
| Cc1cccc(CN2CCC(NCC3CNc4cc(C)nn4C3)CC2)c1 (centres undefined) | -6.82% |
| Cc1nn(C)c(C)c1S(=O)(=O)N(CC(N)=O)CC(C)C | -8.24% |
| Cc1cc(C)n(C2CN(CC(=O)NC(C3CC3)C3CC3)C2)n1 | -3.88% |
| CCCC(O)CN1CCC(=O)N(CC2CC2)Cc2cc3c(cc21)OCO3 (centres undefined) | 25% |
| CCOc1ccc(NC2CCN(C)C2=O)cn1 (centres undefined) | -3.61% |
| CC(=O)Nc1ncc(S(=O)(=O)Nc2ccccc2)s1 | -11.1% |
| COCCNC(=O)[C@H]1C[C@@H]2CCN(c3ncccn3)C[C@@H]2O1 | -4.51% |

| Structure (SMILES) | cytotoxicity at 70.5 h |
| --- | --- |
| CN(Cc1ccc(F)cc1)[C@@H]1CN(S(C)(=O)=O)C[C@H]1O | -4.5% |
| COCCn1ccc(NCc2sccc2C)n1 | -3.13% |
| CCNC(=O)CCC(=O)NC(C)Cc1ccccc1Br (centres undefined) | 4.19% |
| Cc1cc(NCCO)nc(N2CCC(Cc3ccccc3)CC2)c1C#N | 0.669% |
| Cn1cc(C[C@H]2[C@H](O)CCN2C(=O)C2CCCC2)cn1 | -2.64% |
| O=C(NCC1CC1)C1CSCN1S(=O)(=O)c1cccc(F)c1 (centres undefined) | -0.541% |
| CC(NC(=O)NCc1ccccc1Cl)c1ccccn1 (centres undefined) | 19.4% |
| O=C(NCC(O)(c1cccs1)C1CC1)NC1CCCCC1 (centres undefined) | 10.9% |
| NC(=O)C1CN(c2ccc3cc(Br)ccc3n2)CCO1 (centres undefined) | -109% |
| CCN(CC)Cc1cnc2n1CCN(Cc1c(C)noc1C)CC2 | 5.41% |
| C[C@@H]1CN(C(=O)Cn2ccc3ncccc3c2=O)C[C@H](C)O1 | -5.8% |
| O=C(CCN1CCOCC1)NC(Cc1ccsc1)c1nccs1 (centres undefined) | -4.65% |
| COCCc1noc(C2CCCN(c3ncnc4c3CCC4)C2)n1 (centres undefined) | -13.9% |
| COc1ccc(-c2nc3c([nH]2)CCNC3C(=O)O)c2ccc(C)nc12 (centres undefined) | 12.4% |
| O=C(c1cccs1)N1CCC2(CC1)CCN(S(=O)(=O)C1CC1)CC2 | -11.7% |
| CCOCc1nnc2n1CCN(Cc1c(C)noc1C)CC2 | 16.5% |
| CC(Nc1nc(-c2ccccc2)nc2c1CCNCC2)c1cccnc1 (centres undefined) | 2.48% |
| O=C(NC1CC1)[C@@H]1C[C@@H]2CCN(Cc3ccccc3)C[C@@H]2O1 | 25.4% |
| CN(C)CCN(Cc1ccccn1)Cc1ccnn1C1CCCCO1 (centres undefined) | -2.87% |
| CCc1n[nH]c(=O)c(C(=O)N2CCSC(C)(C)C2)c1CC | -10.1% |
| CCc1cnc(C)nc1N1CCN(Cc2ccc(-c3cc[nH]n3)o2)CC1 | 9.84% |
| CC(=O)N1CCC2(CCN(S(=O)(=O)c3ccccc3)CC2)C1 | 22.3% |
| CCCc1nc(C)c(CNc2nc(C)nc3onc(C)c23)s1 | 2.81% |

| Structure (SMILES) | cytotoxicity at 70.5 h |
| --- | --- |
| CCOCC1CN(CCN2CCCCC2)Cc2cnn(C)c21 (centres undefined) | 2.16% |
| Cc1nnc(NC(=O)CSCc2cc(=O)n3ccccc3n2)s1 | -4.73% |
| CN(C)CC1CN(Cc2ccc(-n3cccn3)cc2)CCO1 (centres undefined) | 0.969% |
| CCC(=O)N1CCCC1c1ccsc1 (centres undefined) | -5.78% |
| CC(C)c1ccc(CNC(C)c2ccc(S(=O)(=O)N(C)C)cc2)cc1 (centres undefined) | -2.78% |
| Cc1nc(-c2cnn(C)c2)sc1C(=O)NCc1cccc(CN(C)C)c1 | -6.53% |
| CSCC[C@@H](CO)Nc1ccc(-c2nc(-c3ccccc3C)no2)cn1 | -6.4% |
| CC(C)CN(CC(O)c1ccc(F)cc1)C(=O)c1csnn1 (centres undefined) | 14.1% |
| CCCn1cc(-c2cc(-c3ccoc3)c(C#N)c(N)n2)c(C)n1 | 5.86% |
| Cc1nc2c(Nc3cccc(C#N)c3)nc(N)nc2n1C | 4% |
| CN(Cc1ccco1)c1ccc(C(=O)NCCCc2ccccn2)cn1 | 0.076% |
| CN(C)c1ccc(C(=O)N2CCCc3cc(OC(F)(F)F)ccc32)cn1 | -5.84% |
| CCc1noc(CNc2ccc(C(=O)N3CCCC(C)C3)cc2C)n1 (centres undefined) | -10.5% |
| COc1ccc(OC)c(CN2CCc3nc4ccsc4c(=O)n3CC2)c1 | 38.7% |
| Cc1nc(Oc2ccccc2F)sc1C(=O)O | -11.4% |
| CCc1nc(CC)n(CC(=O)N(CC)CC)n1 | -8.83% |
| CC(C)(C)c1cn(CC2CCCN(c3cnc4ccccc4n3)C2)nn1 (centres undefined) | 0.262% |
| COCCN1C[C@@H](c2ccccc2)[C@@]2(CCN(CC(=O)N(C)C)C2=O)C1 | -9.6% |
| CN(Cc1cccnc1)[C@@H]1CN(Cc2nccn2C)[C@@H]2CCCO[C@H]12 | -4.78% |
| O=S(=O)(Nc1nccs1)c1cc(Cl)cc2c1OCC2 | 2.51% |
| CCC(CO)N(Cc1ccco1)C(=O)c1cccnc1NC (centres undefined) | -2.71% |
| COc1ccc(N(c2ccccc2)c2ccc(C(=O)O)s2)cc1 | -0.368% |
| O=c1oc(-c2cccs2)nn1CC(O)c1ccccc1F (centres undefined) | -4.66% |

| Structure (SMILES) | cytotoxicity at 70.5 h |
| --- | --- |
| CCOCC(=O)NCCC(O)c1ccoc1 (centres undefined) | -11.9% |
| CCCN(CC1CC1)S(=O)(=O)c1ccc(NC(C)=O)cc1 | -1.65% |
| CCc1nsc(N2CCCN(CC(=O)N(C)C3CC3)CC2)n1 | -6.24% |
| CS(=O)(=O)NCCCN1CCCC1c1ccccc1 (centres undefined) | 20% |
| Cn1cnc2c1C(COCC1CC1)CN(c1ncccn1)C2 (centres undefined) | 2.85% |
| CC(C)Nc1ncccc1C(=O)NCc1ncc[nH]1 | -1.28% |
| O=C(c1ccnnc1)N1CCc2ncnc(C3CCOC3)c2CC1 (centres undefined) | -9.59% |
| O=C(NCc1ccccc1)N1CCn2c(Cn3cccn3)cnc2C1 | -2.08% |
| Cn1ccnc1CN1CC[C@@H](NS(C)(=O)=O)[C@@H]1Cc1ccccc1 | -10.6% |
| Cn1cc(C(=O)NC[C@@H]2OC[C@H]3CN(Cc4ccco4)CC[C@H]32)cn1 | -7.09% |
| CC(C)c1cc(C(=O)N[C@H]2CN(C3CCOCC3)C[C@@H]2C2CC2)no1 | -6.62% |
| CCN(CC)C(=O)N1CCN(Cc2cnc(C)nc2)[C@H]2CS(=O)(=O)C[C@H]21 | -17.5% |
| CN(C)C(=O)CN1CCC2(CC1)CC(=O)c1c(ccc3ccccc13)O2 | -1.64% |
| CC(=O)c1cc2ncc(C(=O)NC3CCCCC3)cc2[nH]1 | 0.178% |
| Cn1cc(CN2CCC(F)(F)C3(CCN(c4cccc(F)c4)C3)C2)cn1 (centres undefined) | 43.6% |
| Cn1ncc2c(=O)[nH]c(CN3CCc4sccc4C3)nc21 | 13.1% |
| NC(=O)CC1CCCCN1C(=O)Cc1cccc(Br)c1 (centres undefined) | -4.57% |
| NC(=O)c1cc2c(nc1N1C[C@H]3OC(=O)N(C4CCCC4)[C@H]3C1)CCC2 | -10.7% |
| O=C(NCCc1ccc(F)cc1)NCC(O)c1cccc(F)c1 (centres undefined) | 23.3% |
| Cc1cc(C)nc(N2Cc3cnn(Cc4ccc(F)cc4)c3C2)n1 | 13.2% |
| O=C(c1ccncc1)N1CCCC1c1nc(O)cc(-c2ccccn2)n1 (centres undefined) | -2.92% |
| CCn1cc(CN2CCCN(C(=O)c3ccoc3C)CC2)cn1 | -7.59% |
